Source: ChEMBL document CHEMBL1201862, “PubChem BioAssay data set” (2004)
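Compound exposure: 48 hours, 5 concentrations, 96-well plates. At the GI50, growth is halved.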 Activity calls are given as the source filed them. Cut-off read from the data, not from the text of the source: active = GI50 up to about 1.1 µM and inactive = higher.

Key:
Experiment in all cases: NCI anticancer screen, dose series, 48 h
[1] = test system: OVCAR-4
[2] = test system: HT-29
[3] = test system: K562
[4] = test system: EKVX
[5] = test system: UACC-62
[6] = test system: SR
[7] = test system: UO-31
[8] = test system: 786-0
[9] = test system: COLO 205
[10] = test system: M14
[11] = test system: PC-3
[12] = test system: OVCAR-8
[13] = test system: NCI/ADR-RES
[14] = test system: SF-268
[15] = test system: SK-OV-3
[16] = test system: HL-60
[17] = test system: ACHN
[18] = test system: CCRF-CEM
[19] = test system: U-251
[20] = test system: KM-20L2

Measured: GI50

CC(C)CNC(=O)O
inactive: [1] > 100 µM | [2] > 100 µM | [3] > 100 µM | [4] > 100 µM | [5] > 100 µM | [6] > 100 µM | [7] > 100 µM | [8] > 100 µM | [9] > 100 µM | [10] > 100 µM | [11] > 100 µM | [12] > 100 µM | [13] > 100 µM | [14] > 100 µM | [15] > 100 µM | [16] > 100 µM | [17] > 100 µM | [18] > 100 µM | [19] > 100 µM

COc1ccc(C2NC(c3ccc(OC)cc3)C(C)C(=O)C2C)cc1 (stereo not given)
inactive: [1] > 100 µM | [2] > 100 µM | [3] 42.7 µM | [4] 67 µM | [5] > 100 µM | [20] > 100 µM | [7] 60 µM | [8] > 100 µM | [9] > 100 µM | [10] > 100 µM | [12] > 100 µM | [14] > 100 µM | [15] > 100 µM | [16] > 100 µM | [17] > 100 µM | [18] > 100 µM | [19] > 100 µM

CCN(CC)CCC1(C2CCCCC2)CCC(=O)NC1=O (stereo not given)
inactive: [1] > 100 µM | [2] > 100 µM | [3] > 100 µM | [4] > 100 µM | [5] > 100 µM | [20] > 100 µM | [7] > 100 µM | [8] > 100 µM | [9] > 100 µM | [10] > 100 µM | [12] > 100 µM | [14] > 100 µM | [15] > 100 µM | [17] > 100 µM | [18] > 100 µM | [19] > 100 µM

N=C(N)NS(=O)(=O)c1ccc(NC(=O)c2cccc3c(N)c4ccccc4nc23)cc1
inactive: [1] > 100 µM | [3] > 100 µM | [4] > 100 µM | [5] > 100 µM | [20] 68.2 µM | [7] 55.8 µM | [8] > 100 µM | [9] > 100 µM | [10] > 100 µM | [12] > 100 µM | [14] > 100 µM | [15] > 100 µM | [17] > 100 µM | [18] 92.3 µM | [19] 99.8 µM

Cc1cc(C)nc(NS(=O)(=O)c2ccc(Nc3c4ccc(Cl)cc4nc4c(C(=O)Nc5ccc(S(N)(=O)=O)cc5)cccc34)cc2)n1
inactive: [1] 23.5 µM | [2] 24 µM | [3] 25.1 µM | [4] 21 µM | [5] 25 µM | [6] 16.6 µM | [20] 18.6 µM | [7] 18.6 µM | [8] 15.2 µM | [10] 17.4 µM | [12] 16.9 µM | [14] 39.2 µM | [15] 13.9 µM | [17] 32.1 µM | [18] 25.1 µM | [19] 14.4 µM

CCCCCCCCCCCCCS(=O)(=O)NCC(N)=O
inactive: [1] > 100 µM | [2] > 100 µM | [4] > 100 µM | [5] > 100 µM | [20] > 100 µM | [7] > 100 µM | [8] > 100 µM | [9] > 100 µM | [10] > 100 µM | [12] > 100 µM | [14] > 100 µM | [15] > 100 µM | [16] > 100 µM | [17] > 100 µM | [18] > 100 µM | [19] > 100 µM

N#CCCN(c1ccc(/C=N/c2nc(-c3ccccc3)cs2)cc1)S(=O)(=O)c1ccccc1
inactive: [1] 64.7 µM | [2] > 100 µM | [3] 35.6 µM | [4] 37.5 µM | [5] 59.2 µM | [20] > 100 µM | [7] 23.6 µM | [8] > 100 µM | [9] > 100 µM | [10] 81.7 µM | [12] > 100 µM | [14] 56.1 µM | [15] > 100 µM | [16] 30.8 µM | [18] 48.5 µM | [19] > 100 µM

CCOC(=O)N1CCN(c2c(C)nc(C)nc2O)CC1
inactive: [1] > 100 µM | [2] > 100 µM | [3] > 100 µM | [4] > 100 µM | [5] > 100 µM | [6] > 100 µM | [7] > 100 µM | [8] > 100 µM | [9] > 100 µM | [10] > 100 µM | [11] > 100 µM | [12] > 100 µM | [13] > 100 µM | [14] > 100 µM | [15] > 100 µM | [16] > 100 µM | [17] > 100 µM | [18] > 100 µM | [19] > 100 µM

O=C1NC(=O)/C(=N\c2cccc3c(=O)[nH][nH]c(=O)c23)C(c2nc3ccccc3s2)C1=O (stereo not given)
inactive: [1] > 100 µM | [2] > 100 µM | [4] > 100 µM | [5] > 100 µM | [20] > 100 µM | [7] > 100 µM | [8] > 100 µM | [9] > 100 µM | [10] > 100 µM | [12] > 100 µM | [14] > 100 µM | [15] > 100 µM | [16] > 100 µM | [17] > 100 µM | [18] 55.2 µM | [19] > 100 µM

O=C(CC(=O)N1N=C(n2ccc3ccccc32)CC1c1ccccc1)Nc1cccc(Cl)c1 (stereo not given)
inactive: [1] > 100 µM | [2] > 100 µM | [3] > 100 µM | [4] > 100 µM | [5] > 100 µM | [20] > 100 µM | [7] > 100 µM | [8] > 100 µM | [9] > 100 µM | [10] > 100 µM | [12] > 100 µM | [14] > 100 µM | [15] > 100 µM | [16] > 100 µM | [17] > 100 µM | [18] > 100 µM | [19] > 100 µM

COc1ccc(OC)c(NC(=O)C2=C(C)NC(C)=C(C(=O)Nc3cc(OC)ccc3OC)C2c2ccccc2)c1
inactive: [1] > 100 µM | [2] > 100 µM | [3] 83 µM | [4] > 100 µM | [5] > 100 µM | [20] 86.5 µM | [7] 35.6 µM | [8] > 100 µM | [9] > 100 µM | [10] > 100 µM | [12] > 100 µM | [14] 63.7 µM | [15] > 100 µM | [17] 30 µM | [18] 48.4 µM | [19] > 100 µM

O=c1[nH]cc(COCCO)c(=O)[nH]1
inactive: [1] > 100 µM | [2] > 100 µM | [3] > 100 µM | [4] > 100 µM | [5] > 100 µM | [20] > 100 µM | [7] > 100 µM | [8] > 100 µM | [9] > 100 µM | [10] > 100 µM | [12] > 100 µM | [14] > 100 µM | [15] > 100 µM | [16] > 100 µM | [17] > 100 µM | [18] > 100 µM | [19] > 100 µM
